Drawing on PMC10466176, “Sequential analysis for identification of byproduct from N-benzylation reaction: wound healing and anti-inflammatory potential of the byproduct 4-chlorobenzyl 2-((4-chlorobenzyl)amino)benzoate” (RSC Advances, 2023), this text covers IC50 for one molecule.

This assay deals with T1, COX-2 (cyclooxygenase-2) (Homo sapiens, UniProt P35354).
T1 construct: gene PTGS2
T1 sequence (P35354 18-604): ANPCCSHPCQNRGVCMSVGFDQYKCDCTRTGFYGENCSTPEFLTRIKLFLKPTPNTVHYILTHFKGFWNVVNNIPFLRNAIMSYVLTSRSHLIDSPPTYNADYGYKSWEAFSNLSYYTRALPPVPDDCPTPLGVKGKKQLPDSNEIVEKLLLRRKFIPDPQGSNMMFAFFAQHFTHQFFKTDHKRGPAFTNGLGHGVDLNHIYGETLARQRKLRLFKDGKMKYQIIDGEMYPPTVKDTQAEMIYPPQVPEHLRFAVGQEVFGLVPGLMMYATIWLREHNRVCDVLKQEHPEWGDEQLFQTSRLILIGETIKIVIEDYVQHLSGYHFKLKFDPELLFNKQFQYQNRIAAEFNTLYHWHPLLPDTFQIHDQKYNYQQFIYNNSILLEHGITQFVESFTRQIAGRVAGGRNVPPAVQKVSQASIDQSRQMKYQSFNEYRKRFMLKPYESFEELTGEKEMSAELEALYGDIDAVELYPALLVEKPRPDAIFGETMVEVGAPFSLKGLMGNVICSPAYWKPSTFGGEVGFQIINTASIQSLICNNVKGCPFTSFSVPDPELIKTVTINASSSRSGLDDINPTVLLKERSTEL
As to the kind of experiment: COX-2 enzyme assay with ELISA kit (SEA699Hu). It counts as biochemical.

Molecules are shown by their SMILES. pIC50: −log10 of the molar value.

Consider `O=C(OCc1ccc(Cl)cc1)c1ccccc1NCc1ccc(Cl)cc1` [CCAB, 4-chlorobenzyl 2-((4-chlorobenzyl)amino)benzoate], for which the pIC50 was 6.39.
